According to paper PMC5356007, “A conserved inter-domain communication mechanism regulates the ATPase activity of the AAA-protein Drg1” (Scientific Reports, 2017):
Substitutions are numbered along the chain they refer to. Like-named read-outs stand apart in the source and are kept apart here.

Experiments:
[1] = biological target: T1, Drg1 (Saccharomyces cerevisiae, UniProt P32794, K563A); test: differential scanning fluorimetry; type: binding
T1 construct: gene AFG2; full-length type II AAA-ATPase, N-terminal GST-tag with PreScission site (plasmids derived from pAZ7), expressed in yeast from CUP1 promoter; Walker A mutants KA1 (K292A) and KA2 (K563A); hexamer in presence of nucleotide
T1 sequence (P32794 1-780 K563A): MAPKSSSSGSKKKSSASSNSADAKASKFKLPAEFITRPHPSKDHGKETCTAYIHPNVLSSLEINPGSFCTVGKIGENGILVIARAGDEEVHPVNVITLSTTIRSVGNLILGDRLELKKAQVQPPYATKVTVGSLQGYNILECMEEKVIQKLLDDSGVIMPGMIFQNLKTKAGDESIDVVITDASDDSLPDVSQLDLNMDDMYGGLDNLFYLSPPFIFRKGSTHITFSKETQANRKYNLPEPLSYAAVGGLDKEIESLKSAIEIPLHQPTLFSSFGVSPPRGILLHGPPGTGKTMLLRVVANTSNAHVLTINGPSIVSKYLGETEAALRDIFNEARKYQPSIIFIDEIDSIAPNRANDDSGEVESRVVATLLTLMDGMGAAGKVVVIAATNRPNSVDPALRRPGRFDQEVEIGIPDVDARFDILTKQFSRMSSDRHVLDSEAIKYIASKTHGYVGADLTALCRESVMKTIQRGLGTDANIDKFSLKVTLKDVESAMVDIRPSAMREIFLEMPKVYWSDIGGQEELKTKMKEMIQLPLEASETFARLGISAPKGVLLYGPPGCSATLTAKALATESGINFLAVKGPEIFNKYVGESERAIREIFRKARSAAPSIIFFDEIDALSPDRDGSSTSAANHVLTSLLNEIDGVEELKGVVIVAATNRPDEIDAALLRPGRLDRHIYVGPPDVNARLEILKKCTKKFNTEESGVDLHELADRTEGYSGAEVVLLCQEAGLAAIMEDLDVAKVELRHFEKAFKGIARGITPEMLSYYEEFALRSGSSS

[2] = biological target: T2, Drg1 (Saccharomyces cerevisiae, UniProt P32794, K292A); test: differential scanning fluorimetry; type: binding; settings: read-out: Kd(ATP)
T2 construct: gene AFG2; full-length type II AAA-ATPase, N-terminal GST-tag with PreScission site (plasmids derived from pAZ7), expressed in yeast from CUP1 promoter; Walker A mutants KA1 (K292A) and KA2 (K563A); hexamer in presence of nucleotide
T2 sequence (P32794 1-780 K292A): T1 sequence (P32794 1-780 K563A) with K292A, A563K

Row | Kd ([1]; read-out: Kd(ADP)) | Kd [2] | Kd ([1]; read-out: Kd(ATP)) | Compound
1 | ~120 µM | – | – | Nc1ncnc2c1ncn2[C@@H]1O[C@H](COP(=O)(O)OP(=O)(O)O)[C@@H](O)[C@H]1O [ADP]
2 | – | ~80 µM | ~20 µM | Nc1ncnc2c1ncn2[C@@H]1O[C@H](COP(=O)(O)OP(=O)(O)OP(=O)(O)O)[C@@H](O)[C@H]1O [ATP]
